Test results published in patent publication US20190125867A1, “THERAPEUTIC AGENT FOR SOLID CANCER” (IDAC THERANOSTICS, INC., priority 2014, published 2019).

How the values were obtained:
[1] = system: mouse melanoma cell line B16F10; test: Tumor volume in C57BL/6 mice transplanted with melanoma cell line B16F10; assay type: in vivo; conditions: Day 15
Description: On Day −2 (two days before the cancer cell transplantation), Day 0 (=day of cancer cell transplantation), Day 3, Day 5, Day 9, or Day 12, 0.2 mg of an anti-CD4 antibody (GK1.5; an antibody known to be capable of causing depletion of CD4+ cells in the mouse body by the CDC activity; manufactured by BioXcell) was intraperitoneally administered at one time. The solid tumor diameter was measured on Day 14, and the tumor volume was calculated by short diameter×short diameter×long diameter×π/6.
On Day 5, 3.125 μg, 12.5 μg, 50 μg, or 200 μg of the anti-CD4 antibody was administered (negative control group: no antibody was administered).
The solid tumor diameter in each mouse was measured, and the tumor volume was calculated (short diameter×short diameter×long diameter×π/6).
Thereafter, antibody administration was carried out as follows (Day 0=day of cancer cell transplantation).
The tumor volume was calculated (short diameter×short diameter×long diameter×π/6) from the solid tumor diameter measured on Day 18.
The tumor volume was calculated (short diameter×short diameter×long diameter×π/6) from the solid tumor diameter measured on Day 15.
The tumor volume was calculated (short diameter×short diameter×long diameter×π/6) from the solid tumor diameter measured on Day 16.

[2] = system: CD4+ cells in human peripheral blood mononuclear cells; test: ADCC activity assay (Promega ADCC activity assay kit, PBMCs + ADCC Bioassay Effector cells); assay type: cell-based; conditions: 12,500 PBMCs, 75,000 effector cells, 37° C. 6 hours; FIG. 1
Description: Measurement of the ADCC activity of IT1208 was carried out under the following conditions, according to the protocol for an ADCC activity assay kit sold by Promega. After gently mixing 12,500 PBMCs derived from a healthy individual, anti-CD4mAb (IT1208), and 75,000 ADCC Bioassay Effector cells contained in the Promega kit, the cells were cultured in a CO2 incubator at 37° C. for 6 hours. The luminescent reagent Bio-Glo reagent was added to the culture, and culturing was then continued at room temperature for 20 minutes, followed by measuring chemiluminescence using a luminescence plate reader.

[3] = Example 7 (small molecule anticancer agents), anti-CD4 0.2 mg Day 5, 9, OXA 10, GEM 20, CPA 10 mg/kg Day 5, 9, 12, 16, FIG. 23

Compound | growth of solid tumor relative to control group [1, 3] | further results
O=c1[nH]cc(F)c(=O)[nH]1 [5-FU] | – | growth of solid tumor relative to control group ([1]; Example 4, anti-CD4 0.2 mg once Day 5, anti-CD137 0.1 mg Day 5-9, 5-FU 50 mg/kg four times, FIG. 13): 36%
O=P1(N(CCCl)CCCl)NCCCO1 (stereo not shown) [CPA, Cyclophosphamide] | 75% | –
Nc1ccn([C@@H]2O[C@H](CO)[C@@H](O)C2(F)F)c(=O)n1 [GEM, Gemcitabine] | 63% | –
Rituximab | – | concentration at which ADCC activity began to be found [2]: ≥ 10 nM
